# Key:
# [1] = test system: MOLT-4 cells; assay: MOLT-4 cell viability, CTG assay; type: cell-based; conditions: Homo sapiens, MOLT-4, 48 h
# How it was run: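 Viability read as total ATP luminescence (CTG) after 48 h compound treatment, 11 points at 5-fold spacing in triplicate, cells in RPMI 1640/10% FBS. IC50 is the concentration halving signal relative to control, four-parameter fit, averaged over at least 2 experiments.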
# [2] = molecular target: T1, endogenous BCL-xL (Homo sapiens, UniProt Q07817); assay: Degradation of endogenous BCL-xL in NCI-H1650 (ProteinSimple Jess); type: cell-based; conditions: NCI-H1650, dose 10 nM, 24 hours
# T1 construct: endogenous in cells; host or cells: COR-L105 (ECACC No. 92031918); NCI-H1650 (ATCC No. CRL-5883)
# T1 sequence (Q07817 whole entry): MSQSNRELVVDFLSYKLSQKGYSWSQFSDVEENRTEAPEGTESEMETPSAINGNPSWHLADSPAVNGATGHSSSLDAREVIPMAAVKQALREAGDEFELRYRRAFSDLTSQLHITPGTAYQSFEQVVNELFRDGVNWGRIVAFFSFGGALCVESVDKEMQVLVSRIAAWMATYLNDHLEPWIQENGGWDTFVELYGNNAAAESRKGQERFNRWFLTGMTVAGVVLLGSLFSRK
# Procedure: The BCL-xL degrader low molecular weight compounds were tested against two endogenous cancer cell lines: • COR-L105: ECACC No. 92031918 cultured in RPMI-1640+10% FBS • NCI-H1650: (ATCC No. CRL-5883 cultured in RPMI-1640+10% FBS
# The ability of the BCL-xL degrader low molecular weight compounds to degrade endogenous BCL-xL was assessed using the ProteinSimple 2-40 kDa Jess Separation Module.
# Cell lines were cultured in media that is optimal for their growth at 5% CO2, 37° C. in a tissue culture incubator. Prior to seeding for the degradation assay, the cells were split at least 2 days before the assay to ensure optimal growth density. On the day of seeding, adherent cells were lifted off tissue culture flasks using 0.25% trypsin. Cell viability and cell density were determined using a cell counter (Vi-Cell XR Cell Viability Analyzer, Beckman Coulter). Cells with higher than 85% viability were seeded for the assay.
# The COR-L105 and the NCI-H1650 cell line were seeded in 6-well clear TC-treated multiple well plates (Costar® cat. #3516). Cells were seeded at a density of 2,000,000 cells per well in 2.5 mL of standard growth media. Plates were incubated at 5% CO2, 37° C. overnight in a tissue culture incubator. On the day of dosing, BCL-xL degrader low molecular weight compounds and a BCL-xL inhibitor control were prepared at 6× in standard growth media. […] A control well of untreated cells was also included in the study. Each drug concentration was tested in singlet. Plates were incubated at 5% CO2, 37° C. for 24 hours in a tissue culture incubator.
# After 24 hours, the adherent cells were lifted off tissue culture plates using 0.25% trypsin. Standard growth media was added to quench the trypsin and centrifuged for 5 minutes at 1500 rpm. […]
# Protein was quantified using a Pierce™ BCA Protein Assay Kit (ThermoFisher, cat #23225) following the manufacturer's instructions. […] A SpectraMax M Series Multi-Mode Microplate Reader was used to measure the absorbance at 562 nm. […] Only values that fell within the range of the standard curve were accepted for quantification. […]
Structure (SMILES),IC50 [1] [nM],"% BCL-xL vs. Untreated, NCI-H1650 [2] [%]"
"Cc1ncsc1-c1ccc([C@H](C)NC(=O)[C@@H]2C[C@@H](O)CN2C(=O)[C@@H](NC(=O)CCCCCCCCN(C)CCOC23CC4(C)CC(C)(CC(Cn5ncc(-c6ccc(N7CCCc8c7nnc(Nc7nc9ccccc9s7)c8C)nc6C(=O)O)c5C)(C4)C2)C3)C(C)(C)C)cc1 [Example 5, 6-[3-(1,3-benzothiazol-2-ylamino)-4-methyl-6,7-dihydro-5H-pyrido[2,3-c]pyridazin-8-yl]-3-[1-[[3-[2-[[9-[[(1S)-1-[(2S,4R)-4-hydroxy-2-[[(1S)-1-[4-(4-methylthiazol-5-yl)phenyl]ethyl]carbamoyl]pyrrolidine-1-carbonyl]-2,2-dimethyl-propyl]amino]-9-oxo-nonyl]-methyl-amino]ethoxy]-5,7-dimethyl-1-adamantyl]methyl]-5-methyl-pyrazol-4-yl]pyridine-2-carboxylic acid]",15.8,–
"Cc1ncsc1-c1ccc(CNC(=O)[C@@H]2C[C@@H](O)CN2C(=O)[C@@H](NC(=O)CCCCCCCCCCC(=O)N2CCN(CC#Cc3ccc(OCCCc4sc(N5CCCc6c5nnc(Nc5nc7ccccc7s5)c6C)nc4C(=O)O)c(F)c3)CC2)C(C)(C)C)cc1 [Example 48, 2-(3-(benzo[d]thiazol-2-ylamino)-4-methyl-6,7-dihydropyrido [2,3-c]pyridazin-8(5H)-yl)-5-(3-(2-fluoro-4-(3-(4-(12-(((S)-1-((2S,4R)-4-hydroxy-2-((4-(4-methylthiazol-5-yl)benzyl)carbamoyl)pyrrolidin-1-yl)-3,3-dimethyl-1-oxobutan-2-yl)amino)-12-oxododecanoyl)piperazin-1-yl)prop-1-yn-1-yl)phenoxy)propyl)thiazole-4-carboxylic acid]",–,1.05
"Cc1ncsc1-c1ccc([C@H](C)NC(=O)[C@@H]2C[C@@H](O)CN2C(=O)[C@@H](NC(=O)CCCCCCCCCCCCCCCN(C)CCOC23CC4(C)CC(C)(CC(Cn5ncc(-c6ccc(N7CCCc8c7nnc(Nc7nc9ccccc9s7)c8C)nc6C(=O)O)c5C)(C4)C2)C3)C(C)(C)C)cc1 [Example 1, 6-[3-(1,3-benzothiazol-2-ylamino)-4-methyl-6,7-dihydro-5H-pyrido[2,3-c]pyridazin-8-yl]-3-[1-[[3-[2-[[16-[[(1S)-1-[(2S,4R)-4-hydroxy-2-[[(1S)-1-[4-(4-methylthiazol-5-yl)phenyl]ethyl]carbamoyl]pyrrolidine-1-carbonyl]-2,2-dimethyl-propyl]amino]-16-oxo-hexadecyl]-methyl-amino]ethoxy]-5,7-dimethyl-1-adamantyl]methyl]-5-methyl-pyrazol-4-yl]pyridine-2-carboxylic acid]",3.41,–
"Cc1ncsc1-c1ccc([C@H](C)NC(=O)[C@@H]2C[C@@H](O)CN2C(=O)[C@@H](NC(=O)CCCCCCCN(C)CCOC23CC4(C)CC(C)(CC(Cn5ncc(-c6ccc(N7CCCc8c7nnc(Nc7nc9ccccc9s7)c8C)nc6C(=O)O)c5C)(C4)C2)C3)C(C)(C)C)cc1 [Example 6, 6-[3-(1,3-benzothiazol-2-ylamino)-4-methyl-6,7-dihydro-5H-pyrido[2,3-c]pyridazin-8-yl]-3-[1-[[3-[2-[[8-[[(1S)-1-[(2S,4R)-4-hydroxy-2-[[(1S)-1-[4-(4-methylthiazol-5-yl)phenyl]ethyl]carbamoyl]pyrrolidine-1-carbonyl]-2,2-dimethyl-propyl]amino]-8-oxo-octyl]-methyl-amino]ethoxy]-5,7-dimethyl-1-adamantyl]methyl]-5-methyl-pyrazol-4-yl]pyridine-2-carboxylic acid]",28.7,–
"Cc1ncsc1-c1ccc(CNC(=O)C2C[C@@H](O)CN2C(=O)C(NC(=O)CCCCCC(=O)N2CCN(CC#Cc3ccc(OCCCc4sc(N5CCCc6c5nnc(Nc5nc7ccccc7s5)c6C)nc4C(=O)O)c(F)c3)CC2)C(C)(C)C)cc1 (stereo in doubt) [Example 15, 2-[3-(1,3-benzothiazol-2-ylamino)-4-methyl-6,7-dihydro-5H-pyrido[2,3-c]pyridazin-8-yl]-5-[3-[2-fluoro-4-[3-[4-[7-[[(1S)-1-[(2S,4R)-4-hydroxy-2-[[4-(4-methylthiazol-5-yl)phenyl]methylcarbamoyl]pyrrolidine-1-carbonyl]-2,2-dimethyl-propyl]amino]-7-oxo-heptanoyl]piperazin-1-yl]prop-1-ynyl]phenoxy]propyl] thiazole-4-carboxylic acid]",22.6,–
"Cc1ncsc1-c1ccc([C@H](C)NC(=O)[C@@H]2C[C@@H](O)CN2C(=O)[C@@H](NC(=O)CCCCCCCCCCCN2CCN(CC#Cc3ccc(OCCCc4sc(N5CCCc6c5nnc(Nc5nc7ccccc7s5)c6C)nc4C(=O)O)c(F)c3)CC2)C(C)(C)C)cc1 [Example 51, 2-(3-(benzo[d]thiazol-2-ylamino)-4-methyl-6,7-dihydropyrido [2,3-c]pyridazin-8(5H)-yl)-5-(3-(2-fluoro-4-(3-(4-(12-(((S)-1-((2S,4R)-4-hydroxy-2-(((S)-1-(4-(4-methylthiazol-5-yl)phenyl)ethyl)carbamoyl)pyrrolidin-1-yl)-3,3-dimethyl-1-oxobutan-2-yl)amino)-12-oxododecyl)piperazin-1-yl)prop-1-yn-1-yl)phenoxy)propyl)thiazole-4-carboxylic acid]",–,9.22
"Cc1ncsc1-c1ccc([C@H](C)NC(=O)[C@@H]2C[C@@H](O)CN2C(=O)[C@@H](NC(=O)CCCCCCCCCCC(=O)N2CCN(CC#Cc3ccc(OCCCc4sc(N5CCCc6c5nnc(Nc5nc7ccccc7s5)c6C)nc4C(=O)O)c(F)c3)CC2)C(C)(C)C)cc1 [Example 46, 2-(3-(benzo[d]thiazol-2-ylamino)-4-methyl-6,7-dihydropyrido [2,3-c]pyridazin-8(5H)-yl)-5-(3-(2-fluoro-4-(3-(4-(12-(((S)-1-((2S,4R)-4-hydroxy-2-(((S)-1-(4-(4-methylthiazol-5-yl)phenyl)ethyl)carbamoyl)pyrrolidin-1-yl)-3,3-dimethyl-1-oxobutan-2-yl)amino)-12-oxododecanoyl)piperazin-1-yl)prop-1-yn-1-yl)phenoxy)propyl)thiazole-4-carboxylic acid]",–,16.23
"Cc1ncsc1-c1ccc([C@H](C)NC(=O)C2CC(O)CN2C(=O)C(NC(=O)CCCCCCCCCCCN2CCN(CC#Cc3ccc(OCCCc4sc(N5CCCc6c5nnc(Nc5nc7ccccc7s5)c6C)nc4C(=O)O)c(F)c3)CC2)C(C)(C)C)cc1 (stereo in doubt) [Example 31, 2-[3-(1,3-benzothiazol-2-ylamino)-4-methyl-6,7-dihydro-5H-pyrido[2,3-c]pyridazin-8-yl]-5-[3-[2-fluoro-4-[3-[4-[12-[[(1S)-1-[(2S,4R)-4-hydroxy-2-[[(1S)-1-[4-(4-methylthiazol-5-yl)phenyl]ethyl]carbamoyl]pyrrolidine-1-carbonyl]-2,2-dimethyl-propyl]amino]-12-oxo-dodecyl]piperazin-1-yl]prop-1-ynyl]phenoxy]propyl] thiazole-4-carboxylic acid]",7,–
